The results in this text go back to patent publication US6500821B1, “4-amino-1-aryl-1,5-dihydropyrrol-2-ones and process for making” (Arzneimittelwerk Dresden GmbH, priority 1999, dated 2002).

Broadly, the melting point is the temperature of the solid-liquid transition.

The test system of one data set is maximal electroshock. In words: Anticonvulsive action, maximal electroshock (MES), mouse i.p. The class given is in vivo. As to conditions: for responders at 100 mg/kg / responders at 300 mg/kg: ip, read-out: Action, % of the protected animals. As to the method: (§1) Compounds according to the present invention were tested in vivo for their anticonvulsive action as shown in Table 1 in mice by i.p. administration, or in rats administered orally according to the internationally customary standard (Pharmac. Weekblad, Sc.Ed. 14 132 (1992) and Antiepileptic Drugs, Third Ed., Raven Press, New York 1989). [table]

A further data set relates to s.c. pentetrazole. Briefly: Anticonvulsive action, s.c. pentetrazole (PTZ), mouse i.p. Type of data set: in vivo. As to the method:
as §1

For another data set, the system named is Vogel Conflict Test. Briefly: Vogel Conflict Test. The class given is in vivo, rat. As to conditions: for Changed number of impulses to the control in % / dose from which an anxiolytic action was detected / equally effective dose: rat; for dose from which an anxiolytic action was detected / equally effective dose: p.o. An excerpt: In this model, continuous access to drinking water is withheld from rats for a certain time. After this period, free access is given to drinking water, but is coupled with a mild electrical stimulation. The conflict for the animals is between accepting the electrical stimulation or going without a drink.
The reactions to a conflict situation of this type are similar to the secondary phenomena of anxiety in man. The resulting avoidance reactions can be suppressed by anxiolytic substances. As a measure of the anxiolytic action, the number of tolerated current pulses of the animals treated with the test substance is assessed in comparison to the vehicle-treated control group.

A short description of data set [1]: Octanol/water partition coefficient. Type of data set: physicochemical. Particulars: for logP: read-out: log P (octanol/water partition coefficient).
Setting [2] is: ip, dose 100 mg/kg, read-out: Action, % of the protected animals.
Setting [3] is: ip, dose 300 mg/kg, read-out: Action, % of the protected animals.

As to `NC(=O)N1c2ccccc2C=Cc2ccccc21` [Carbamazepin, reference compound], the “Action, % of the protected animals” value in the data set on maximal electroshock (dose 100 mg/kg) was 100%; in the data set on s.c. pentetrazole (dose 100 mg/kg), 0%.
For `O=C1CN=C(c2ccccc2Cl)c2cc([N+](=O)[O-])ccc2N1` [Clonazepam, clonazepam], the “Changed number of impulses to the control in %” value (from here on “Changed number … in %”) turned out to be 122% in the data set with Vogel Conflict Test (0.1 mg/kg p.o.), 128% with Vogel Conflict Test (0.3 mg/kg p.o.) and 173% in the data set on Vogel Conflict Test (1.0 mg/kg p.o.). The “dose from which an anxiolytic action was detected / equally effective dose” value in the data set on Vogel Conflict Test was 1 mg/kg.
`O=C1C=C(N2CCOCC2)CN1c1ccccc1Cl` [Compound 1, 1-(2-chlorophenyl)-4-morpholin-4-yl-1,5-dihydropyrrol-2-one] yielded a melting point of 154 to 156 °C. Also, the responders at 100 mg/kg in the data set with maximal electroshock (dose 100 mg/kg) was 0%. Also, the responders at 100 mg/kg in the data set on s.c. pentetrazole (setting [2]) is 0%. Also, in the data set on Vogel Conflict Test, the “dose from which an anxiolytic action was detected / equally effective dose” value came out at 3 mg/kg.
For `Cc1cccc(N2CC(N3CCOCC3)=CC2=O)c1` [Compound 2, 1-(3-methylphenyl)-4-morpholin-4-yl-1,5-dihydropyrrol-2-one], in the data set with maximal electroshock (dose 100 mg/kg), the responders at 100 mg/kg was 33%. In addition, the responders at 300 mg/kg in the data set on s.c. pentetrazole (setting [3]) is 100%. The logP in data set [1] came to 1.46.
Compound `O=C1C=C(N2CCOCC2)CN1c1ccc(F)cc1` [Compound 3, 1-(4-fluorophenyl)-4-morpholin-4-yl-1,5-dihydropyrrol-2-one] had a melting point of 226 to 229 °C. Further, the responders at 100 mg/kg with maximal electroshock (dose 100 mg/kg) is 50%. In the data set with s.c. pentetrazole (setting [2]), the responders at 100 mg/kg was 33%.
In the case of `O=C1C=C(N2CCOCC2)CN1c1ccc(Br)cc1` [Compound 5, 1-(4-bromophenyl)-4-morpholin-4-yl-1,5-dihydropyrrol-2-one], the melting point was 230 to 233 °C. In addition, the responders at 100 mg/kg in the data set with maximal electroshock (dose 100 mg/kg) was determined as 33%. Moreover, the responders at 100 mg/kg with s.c. pentetrazole (setting [2]) is 100%. The logP in data set [1] came out at 2.16.
Regarding `Cc1ccc(N2CC(N3CCOCC3)=CC2=O)cc1` [Compound 6, 1-(4-methylphenyl)-4-morpholin-4-yl-1,5-dihydropyrrol-2-one], in the data set on maximal electroshock (dose 300 mg/kg), the responders at 300 mg/kg turned out to be 100%. Also, the responders at 100 mg/kg with s.c. pentetrazole (setting [2]) is 100%. The logP in data set [1] came out at 1.42.
Compound `COc1ccc(N2CC(N3CCOCC3)=CC2=O)cc1` [Compound 7, 1-(4-methoxyphenyl)-4-morpholin-4-yl-1,5-dihydropyrrol-2-one] had a melting point of 198 to 202 °C. Also, in the data set on maximal electroshock (dose 300 mg/kg), the responders at 300 mg/kg came to 0%. In addition, in the data set on s.c. pentetrazole (setting [3]), the responders at 300 mg/kg turned out to be 80%. The logP in data set [1] was 0.74.
`O=C1C=C(N2CCOCC2)CN1c1ccc(C(F)(F)F)cc1` [Compound 8, 4-morpholin-4-yl-1-(4-trifluoromethylphenyl)-1,5-dihydropyrrol-2-one] had a melting point of 205 to 207 °C. Also, the responders at 100 mg/kg in the data set on maximal electroshock (dose 100 mg/kg) is 66%. In addition, the responders at 100 mg/kg with s.c. pentetrazole (setting [2]) amounted to 100%.
Consider `O=C1C=C(N2CCOCC2)CN1c1ccc(OC(F)(F)F)cc1` [Compound 9, 4-morpholin-4-yl-1-(4-trifluoromethoxyphenyl)-1,5-dihydropyrrol-2-one], for which the melting point is 148 to 153 °C. The responders at 100 mg/kg in the data set with maximal electroshock (dose 100 mg/kg) turned out to be 100%. Further, the responders at 10 mg/kg in the data set on s.c. pentetrazole (ip, dose 10 mg/kg, read-out: Action, % of the protected animals) is 50%. Also, the logP in data set [1] worked out at 2.45.
With `O=C1C=C(N2CCOCC2)CN1c1ccc(F)c(Cl)c1` [Compound 10, 1-(3-chloro-4-fluorophenyl)-4-morpholin-4-yl-1,5-dihydropyrrol-2-one], the melting point lay in the range of 162 to 166 °C. Further, the responders at 100 mg/kg in the data set with maximal electroshock (dose 100 mg/kg) amounted to 100%. In addition, the responders at 100 mg/kg in the data set on s.c. pentetrazole (setting [2]) is 100%. In addition, in data set [1], the logP turned out to be 2.19.
Consider `COc1cc(N2CC(N3CCOCC3)=CC2=O)cc(OC)c1OC` [Compound 11, 4-morpholin-4-yl-1-(3,4,5-trimethoxyphenyl)-1,5-dihydropyrrol-2-one], for which the melting point was 179 to 182 °C. Moreover, the responders at 300 mg/kg in the data set with maximal electroshock (dose 300 mg/kg) worked out at 0%. Further, the responders at 300 mg/kg in the data set on s.c. pentetrazole (setting [3]) is 66%.
Take `Cc1cccc(N2CC(N3CCCCC3)=CC2=O)c1` [Compound 12, 1-(3-methylphenyl)-4-piperidin-1-yl-1,5-dihydropyrrol-2-one]: the melting point is 117 to 123 °C. For the same compound, in the data set with maximal electroshock (dose 300 mg/kg), the responders at 300 mg/kg was 0%. For the same compound, in the data set on s.c. pentetrazole (setting [3]), the responders at 300 mg/kg turned out to be 0%. Further, the logP in data set [1] was found to be 2.66.
`O=C1C=C(N2CCCCC2)CN1c1ccc(F)cc1` [Compound 13, 1-(4-fluorophenyl)-4-piperidin-1-yl-1,5-dihydropyrrol-2-one] had a melting point of 214 to 216 °C. Besides, the responders at 300 mg/kg in the data set with maximal electroshock (dose 300 mg/kg) worked out at 0%. For the same compound, in the data set with s.c. pentetrazole (setting [3]), the responders at 300 mg/kg worked out at 0%. Further, the logP in data set [1] was 2.35.
With `O=C1C=C(N2CCCCC2)CN1c1ccc(Cl)cc1` [Compound 14, 1-(4-chlorophenyl)-4-piperidin-1-yl-1,5-dihydropyrrol-2-one], the responders at 100 mg/kg in the data set with maximal electroshock (dose 100 mg/kg) and in the data set with s.c. pentetrazole (setting [2]) was 100% each time. Further, the logP in data set [1] came to 3.06.
In the case of `Cc1ccc(N2CC(N3CCCCC3)=CC2=O)cc1` [Compound 15, 1-(4-methylphenyl)-4-piperidin-1-yl-1,5-dihydropyrrol-2-one], the melting point is 174 to 177 °C. Also, the responders at 100 mg/kg with maximal electroshock (dose 100 mg/kg) amounted to 100%. Further, the responders at 100 mg/kg with s.c. pentetrazole (setting [2]) was 100%. Besides, the logP in data set [1] is 2.62.
Turning to `O=C1C=C(N2CCCCC2)CN1c1ccc(F)c(Cl)c1` [Compound 16, 1-(3-chloro-4-fluorophenyl)-4-piperidin-1-yl-1,5-dihydropyrrol-2-one], the melting point is 195 to 196 °C. Also, the responders at 300 mg/kg in the data set with maximal electroshock (dose 300 mg/kg) was 100%. Further, the responders at 300 mg/kg in the data set on s.c. pentetrazole (setting [3]) worked out at 0%.
`O=C1C=C(N2CCCC2)CN1c1ccc(Cl)cc1` [Compound 17, 1-(4-chlorophenyl)-4-pyrrolidin-1-yl-1,5-dihydropyrrol-2-one] came in with a melting point of 223 to 227 °C. In addition, the responders at 300 mg/kg in the data set on maximal electroshock (dose 300 mg/kg) is 66%. The responders at 300 mg/kg in the data set on s.c. pentetrazole (setting [3]) worked out at 0%. Further, the logP in data set [1] came to 2.6.
The compound `CC1CCN(C2=CC(=O)N(c3ccc(Cl)cc3)C2)CC1` [Compound 18, 1-(4-chlorophenyl)-4-(4-methylpiperidin-1-yl)-1,5-dihydropyrrol-2-one] returned a melting point of 194 to 196 °C. Moreover, the responders at 100 mg/kg in the data set with maximal electroshock (dose 100 mg/kg) worked out at 66%. Also, the responders at 100 mg/kg in the data set with s.c. pentetrazole (setting [2]) worked out at 66%.
`CC1CCCCN1C1=CC(=O)N(c2ccc(Cl)cc2)C1` (stereo not shown) [Compound 20, 1-(4-chlorophenyl)-4-(2-methylpiperidin-1-yl)-1,5-dihydropyrrol-2-one] gave a melting point of 181 to 185 °C. Further, the responders at 300 mg/kg with maximal electroshock (dose 300 mg/kg) was 66%. In the data set with s.c. pentetrazole (setting [2]), the responders at 100 mg/kg was determined as 40%.
`CN1CCN(C2=CC(=O)N(c3ccc(Cl)cc3)C2)CC1` [Compound 21, 1-(4-chlorophenyl)-4-(4-methylpiperazin-1-yl)-1,5-dihydropyrrol-2-one] showed a melting point of 194 to 197 °C. The responders at 100 mg/kg with maximal electroshock (dose 100 mg/kg) was 66%. Also, the responders at 100 mg/kg in the data set on s.c. pentetrazole (setting [2]) was 100%.
Take `O=C1C=C(N2CCCCCC2)CN1c1ccc(Cl)cc1` [Compound 22, 1-(4-chlorophenyl)-4-azepam-1-yl-1,5-dihydropyrrol-2-one]: the “Action, % of the protected animals” value with maximal electroshock (dose 300 mg/kg) and in the data set with s.c. pentetrazole (dose 300 mg/kg) was 100% each time. The “log P (octanol/water partition coefficient)” value in data set [1] is listed as 3.40.
In turn, `CCN(CC)C1=CC(=O)N(c2ccc(Cl)cc2)C1` [Compound 23, 1-(4-chlorophenyl)-4-(diethylamino)-1,5-dihydropyrrol-2-one] returned a melting point of 165 to 168 °C. Besides, the responders at 300 mg/kg in the data set with maximal electroshock (dose 300 mg/kg) worked out at 50%. The responders at 300 mg/kg in the data set on s.c. pentetrazole (setting [3]) was 66%.
As to `COCCN(CCOC)C1=CC(=O)N(c2ccc(Cl)cc2)C1` [Compound 24, 1-(4-chlorophenyl)-4-(bis(methoxyethyl)amino)-1,5-dihydropyrrol-2-one], the melting point fell in the range of 189 to 195 °C. In addition, the responders at 300 mg/kg in the data set on maximal electroshock (dose 300 mg/kg) worked out at 33%. Also, the responders at 300 mg/kg in the data set on s.c. pentetrazole (setting [3]) was 66%.
In turn, `O=C1C=C(N2CCOCC2)CN1c1ccccc1` [Compound 25, 4-morpholin-4-yl-1-phenyl-1,5-dihydropyrrol-2-one] came in with a melting point of 161 to 164 °C. Further, the responders at 100 mg/kg in the data set with maximal electroshock (dose 100 mg/kg) was found to be 40%. For the same compound, the responders at 100 mg/kg in the data set on s.c. pentetrazole (setting [2]) worked out at 66%.
`CN1C(=O)CN=C(c2ccccc2)c2cc(Cl)ccc21` [Diazepam, diazepam]: the “Changed number … in %” value in the data set with Vogel Conflict Test (0.1 mg/kg p.o.) is 94%; with Vogel Conflict Test (0.3 mg/kg p.o.) it was 114%; in the data set with Vogel Conflict Test (1.0 mg/kg p.o.) it was 148%; in the data set with Vogel Conflict Test (3 mg/kg p.o.), 167%.
On to `CN1CCN=C(c2ccccc2)c2cc(Cl)ccc21` [Medazepam, medazepam], for which the “anxiolytic action (in words)” value with Vogel Conflict Test (dose range from 0.3 to 3 mg/kg p.o.) was “not possible to detect”. Moreover, the results for the “Changed number … in %” value with Vogel Conflict Test (0.3 mg/kg p.o.), in the data set with Vogel Conflict Test (1.0 mg/kg p.o.) and in the data set with Vogel Conflict Test (3 mg/kg p.o.) were 100%, 131% and 78%, respectively.
Take `CCCC(CCC)C(=O)O` [Valproate, reference compound]: the responders at 100 mg/kg in the data set with maximal electroshock (dose 100 mg/kg) stood at 0%; in the data set on s.c. pentetrazole (setting [2]), 30%.
